Laboratory results as given in PubChem BioAssay AID248 (DTP/NCI, 2004).
Inconclusive results and toxic doses are left out. No stated cut-off is given here; in the data, active means T/C of 150% or more; inactive means T/C below 125%.

Tested on: L1210 leukemia ip in BDF1 mice, survival T/C
Assay: NCI In Vivo Anticancer Drug Screen. Data for tumor model L1210 Leukemia (intraperitoneal) in B6D2F1 (BDF1) mice
Conditions: higher = longer survival
Summary of the method: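 Transplanted-tumor mice were given test agent; controls received vehicle only. Survival readings from the two groups were divided (treated over control).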

[1] = endpoint: mean survival time, dose: 50.0 mg/kg/injection, schedule: Q01DX009 (ip), vehicle: Klucel (hydroxypropylcellulose) (HPC)
[2] = endpoint: mean survival time, dose: 100.0 mg/kg/injection, schedule: Q01DX009 (ip), vehicle: Klucel (hydroxypropylcellulose) (HPC)
[3] = endpoint: mean survival time, dose: 200.0 mg/kg/injection, schedule: Q01DX009 (ip), vehicle: Klucel (hydroxypropylcellulose) (HPC)
[4] = endpoint: mean survival time, dose: 400.0 mg/kg/injection, schedule: Q01DX009 (ip), vehicle: Klucel (hydroxypropylcellulose) (HPC)
[5] = endpoint: mean survival time, dose: 100.0 mg/kg/injection, schedule: Q04DX003 (ip), vehicle: saline with Tween-80
[6] = endpoint: mean survival time, dose: 200.0 mg/kg/injection, schedule: Q04DX003 (ip), vehicle: saline with Tween-80
[7] = endpoint: mean survival time, dose: 400.0 mg/kg/injection, schedule: Q04DX003 (ip), vehicle: saline with Tween-80

Measured: T/C

CC(=O)O[C@]1(C(C)=O)CC[C@H]2[C@@H]3C[C@H](C)C4=CC(=O)CC[C@]4(C)[C@H]3CC[C@@]21C
inactive: [1] 109 % of control | endpoint: mean survival time, dose: 100.0 mg/kg/injection, schedule: Q01DX001 (sc), vehicle: steriod suspending solution 102 % of control | [2] 101 % of control | endpoint: mean survival time, dose: 200.0 mg/kg/injection, schedule: Q01DX001 (sc), vehicle: steriod suspending solution 108 % of control | [3] 103 % of control | endpoint: mean survival time, dose: 200.0 mg/kg/injection, schedule: Q01DX009 (sc), vehicle: steriod suspending solution 91 % of control | endpoint: mean survival time, dose: 400.0 mg/kg/injection, schedule: Q01DX001 (sc), vehicle: steriod suspending solution 102 % of control | [4] 100 % of control | endpoint: mean survival time, dose: 400.0 mg/kg/injection, schedule: Q01DX009 (sc), vehicle: steriod suspending solution 94 % of control | endpoint: mean survival time, dose: 600.0 mg/kg/injection, schedule: Q01DX009 (sc), vehicle: steriod suspending solution 96 % of control | endpoint: mean survival time, dose: 800.0 mg/kg/injection, schedule: Q01DX009 (ip), vehicle: Klucel (hydroxypropylcellulose) (HPC) 104 % of control | endpoint: mean survival time, dose: 800.0 mg/kg/injection, schedule: Q01DX009 (sc), vehicle: steriod suspending solution 91 % of control | endpoint: mean survival time, dose: 1000.0 mg/kg/injection, schedule: Q01DX009 (sc), vehicle: steriod suspending solution 94 % of control | endpoint: median survival time, dose: 16.0 mg/kg/injection, schedule: Q03HX008 (ip), vehicle: Klucel (hydroxypropylcellulose) (HPC) 97 % of control | endpoint: median survival time, dose: 16.0 mg/kg/injection, schedule: Q03HX016 (ip), vehicle: Klucel (hydroxypropylcellulose) (HPC) 94 % of control | endpoint: median survival time, dose: 16.0 mg/kg/injection, schedule: Q03HX024 (ip), vehicle: Klucel (hydroxypropylcellulose) (HPC) 96 % of control | endpoint: median survival time, dose: 32.0 mg/kg/injection, schedule: Q03HX008 (ip), vehicle: Klucel (hydroxypropylcellulose) (HPC) 96 % of control | endpoint: median survival time, dose: 32.0 mg/kg/injection, schedule: Q03HX016 (ip), vehicle: Klucel (hydroxypropylcellulose) (HPC) 94 % of control | endpoint: median survival time, dose: 32.0 mg/kg/injection, schedule: Q03HX024 (ip), vehicle: Klucel (hydroxypropylcellulose) (HPC) 95 % of control | endpoint: median survival time, dose: 64.0 mg/kg/injection, schedule: Q01DX009 (ip), vehicle: Klucel (hydroxypropylcellulose) (HPC) 107 % of control | endpoint: median survival time, dose: 64.0 mg/kg/injection, schedule: Q03HX008 (ip), vehicle: Klucel (hydroxypropylcellulose) (HPC) 93 % of control | endpoint: median survival time, dose: 64.0 mg/kg/injection, schedule: Q03HX016 (ip), vehicle: Klucel (hydroxypropylcellulose) (HPC) 94 % of control | endpoint: median survival time, dose: 64.0 mg/kg/injection, schedule: Q03HX024 (ip), vehicle: Klucel (hydroxypropylcellulose) (HPC) 93 % of control | endpoint: median survival time, dose: 128.0 mg/kg/injection, schedule: Q01DX001 (ip), vehicle: Klucel (hydroxypropylcellulose) (HPC) 100 % of control | endpoint: median survival time, dose: 128.0 mg/kg/injection, schedule: Q01DX009 (ip), vehicle: Klucel (hydroxypropylcellulose) (HPC) 105 % of control | endpoint: median survival time, dose: 128.0 mg/kg/injection, schedule: Q03HX008 (ip), vehicle: Klucel (hydroxypropylcellulose) (HPC) 93 % of control | endpoint: median survival time, dose: 128.0 mg/kg/injection, schedule: Q03HX016 (ip), vehicle: Klucel (hydroxypropylcellulose) (HPC) 93 % of control | endpoint: median survival time, dose: 128.0 mg/kg/injection, schedule: Q04DX003 (ip), vehicle: Klucel (hydroxypropylcellulose) (HPC) 102 % of control | endpoint: median survival time, dose: 128.0 mg/kg/injection, schedule: Q08DX002 (ip), vehicle: Klucel (hydroxypropylcellulose) (HPC) 100 % of control | endpoint: median survival time, dose: 256.0 mg/kg/injection, schedule: Q01DX001 (ip), vehicle: Klucel (hydroxypropylcellulose) (HPC) 96 % of control | endpoint: median survival time, dose: 256.0 mg/kg/injection, schedule: Q01DX009 (ip), vehicle: Klucel (hydroxypropylcellulose) (HPC) 104 % of control | endpoint: median survival time, dose: 256.0 mg/kg/injection, schedule: Q04DX003 (ip), vehicle: Klucel (hydroxypropylcellulose) (HPC) 105 % of control | endpoint: median survival time, dose: 256.0 mg/kg/injection, schedule: Q08DX002 (ip), vehicle: Klucel (hydroxypropylcellulose) (HPC) 108 % of control | endpoint: median survival time, dose: 512.0 mg/kg/injection, schedule: Q01DX001 (ip), vehicle: Klucel (hydroxypropylcellulose) (HPC) 100 % of control | endpoint: median survival time, dose: 512.0 mg/kg/injection, schedule: Q01DX009 (ip), vehicle: Klucel (hydroxypropylcellulose) (HPC) 100 % of control | endpoint: median survival time, dose: 512.0 mg/kg/injection, schedule: Q04DX003 (ip), vehicle: Klucel (hydroxypropylcellulose) (HPC) 98 % of control | endpoint: median survival time, dose: 512.0 mg/kg/injection, schedule: Q08DX002 (ip), vehicle: Klucel (hydroxypropylcellulose) (HPC) 100 % of control | endpoint: median survival time, dose: 1024.0 mg/kg/injection, schedule: Q01DX001 (ip), vehicle: Klucel (hydroxypropylcellulose) (HPC) 102 % of control | endpoint: median survival time, dose: 1024.0 mg/kg/injection, schedule: Q01DX009 (ip), vehicle: Klucel (hydroxypropylcellulose) (HPC) 105 % of control | endpoint: median survival time, dose: 1024.0 mg/kg/injection, schedule: Q04DX003 (ip), vehicle: Klucel (hydroxypropylcellulose) (HPC) 114 % of control | endpoint: median survival time, dose: 1024.0 mg/kg/injection, schedule: Q08DX002 (ip), vehicle: Klucel (hydroxypropylcellulose) (HPC) 97 % of control | endpoint: median survival time, dose: 2048.0 mg/kg/injection, schedule: Q01DX001 (ip), vehicle: Klucel (hydroxypropylcellulose) (HPC) 92 % of control | endpoint: median survival time, dose: 2048.0 mg/kg/injection, schedule: Q08DX002 (ip), vehicle: Klucel (hydroxypropylcellulose) (HPC) 95 % of control

C=C1C2CCC3(C)C(c4ccoc4)OC(=O)CC13OC1CC(=O)C(C)(C)C(CC(=O)OC)C12C (stereo not given)
inactive: endpoint: mean survival time, dose: 100.0 mg/kg/injection, schedule: Q01DX001 (ip), vehicle: saline 97 % of control | endpoint: mean survival time, dose: 200.0 mg/kg/injection, schedule: Q01DX001 (ip), vehicle: saline 96 % of control | endpoint: mean survival time, dose: 400.0 mg/kg/injection, schedule: Q01DX001 (ip), vehicle: saline 114 % of control

CN1C=CC(=Cc2ccccc2)C=C1
inactive: endpoint: mean survival time, dose: 12.5 mg/kg/injection, schedule: Q04DX002 (ip), vehicle: Klucel (hydroxypropylcellulose) (HPC) 90 % of control | endpoint: mean survival time, dose: 25.0 mg/kg/injection, schedule: Q04DX002 (ip), vehicle: Klucel (hydroxypropylcellulose) (HPC) 107 % of control | endpoint: mean survival time, dose: 50.0 mg/kg/injection, schedule: Q04DX002 (ip), vehicle: Klucel (hydroxypropylcellulose) (HPC) 107 % of control

CCN(CC)c1ccc(C(=O)OCCNC2CCCCC2)cc1
inactive: endpoint: mean survival time, dose: 75.0 mg/kg/injection, schedule: Q01DX001 (ip), vehicle: carboxymethylcellulose (CMC) 94 % of control | endpoint: mean survival time, dose: 150.0 mg/kg/injection, schedule: Q01DX001 (ip), vehicle: carboxymethylcellulose (CMC) 98 % of control

O=C(COc1ccc(Cl)cc1)Nc1ccccc1
inactive: endpoint: mean survival time, dose: 100.0 mg/kg/injection, schedule: Q04DX002 (ip), vehicle: Klucel (hydroxypropylcellulose) (HPC) 109 % of control | endpoint: mean survival time, dose: 200.0 mg/kg/injection, schedule: Q04DX002 (ip), vehicle: Klucel (hydroxypropylcellulose) (HPC) 98 % of control | endpoint: mean survival time, dose: 400.0 mg/kg/injection, schedule: Q04DX002 (ip), vehicle: Klucel (hydroxypropylcellulose) (HPC) 103 % of control

CC(C)=CC#N
inactive: [5] 90 % of control | [6] 103 % of control | [7] 101 % of control

Cn1cnc([N+](=O)[O-])c1[Se]c1ncnc2nc[nH]c12
inactive: endpoint: mean survival time, dose: 12.5 mg/kg/injection, schedule: Q01DX005 (ip), vehicle: other 89 % of control | endpoint: mean survival time, dose: 50.0 mg/kg/injection, schedule: Q01DX005 (ip), vehicle: other 87 % of control

Cc1ccc(C)c(NC(=O)c2ccccc2N)c1
inactive: [2] 98 % of control | endpoint: mean survival time, dose: 100.0 mg/kg/injection, schedule: Q04DX003 (ip), vehicle: Klucel (hydroxypropylcellulose) (HPC) 104 % of control | [3] 93 % of control | endpoint: mean survival time, dose: 200.0 mg/kg/injection, schedule: Q04DX003 (ip), vehicle: Klucel (hydroxypropylcellulose) (HPC) 97 % of control | [4] 93 % of control | endpoint: mean survival time, dose: 400.0 mg/kg/injection, schedule: Q04DX003 (ip), vehicle: Klucel (hydroxypropylcellulose) (HPC) 92 % of control

COc1ccc(OC)c(C(C)(O)CC(=O)O)c1 (stereo not given)
inactive: endpoint: mean survival time, dose: 100.0 mg/kg/injection, schedule: Q01DX009 (ip), vehicle: saline with Tween-80 100 % of control | [5] 96 % of control | endpoint: mean survival time, dose: 200.0 mg/kg/injection, schedule: Q01DX009 (ip), vehicle: saline with Tween-80 105 % of control | [6] 93 % of control | endpoint: mean survival time, dose: 400.0 mg/kg/injection, schedule: Q01DX009 (ip), vehicle: saline with Tween-80 97 % of control | [7] 101 % of control

NCC(O)(c1ccccc1)c1ccccc1
inactive: endpoint: mean survival time, dose: 12.5 mg/kg/injection, schedule: Q01DX009 (ip), vehicle: Klucel (hydroxypropylcellulose) (HPC) 101 % of control | endpoint: mean survival time, dose: 25.0 mg/kg/injection, schedule: Q01DX009 (ip), vehicle: Klucel (hydroxypropylcellulose) (HPC) 95 % of control | [1] 89 % of control | endpoint: mean survival time, dose: 75.0 mg/kg/injection, schedule: Q01DX001 (ip), vehicle: other 100 % of control
